According to the supplement of paper PMC10307832:

Key:
Test in all cases: relative viability (nuclei count vs DMSO), 5 days (fraction); higher = more cells survive
[1] = compound: C1=CC=C(C(=C1)C2=CC=C(C=C2)C3=CSC4=C3C(=C(C(=O)N4)C#N)O)O + Cc1cc(Nc2cc(N3CCN(C)CC3)nc(Sc3ccc(NC(=O)C4CC4)cc3)n2)n[nH]1 [Tozasertib] (partner 0.1 µM)
In short: (§1)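 One day after seeding in 1536-well plates, lung cancer cell lines were dosed by pin tool. Dosing was either single-drug or a fixed anchor-drug dose plus five library-drug doses (not always all listed) in √10 steps. After 5 days, nuclei were stained in one fix-and-stain step and counted on 4× images, and relative viability is the nuclei count of treated wells over that of vehicle wells, given as the median of duplicate plates.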

TGX 221 + Luminespib = compound: CC1=CN2C(=O)C=C(N=C2C(=C1)C(C)NC3=CC=CC=C3)N4CCOCC4 [TGX 221] + CCNC(=O)c1noc(-c2cc(C(C)C)c(O)cc2O)c1-c1ccc(CN2CCOCC2)cc1 [Luminespib] (partner 0.01 µM)
In short: as §1

TGX 221 + Tozasertib = compound: CC1=CN2C(=O)C=C(N=C2C(=C1)C(C)NC3=CC=CC=C3)N4CCOCC4 [TGX 221] + Cc1cc(Nc2cc(N3CCN(C)CC3)nc(Sc3ccc(NC(=O)C4CC4)cc3)n2)n[nH]1 [Tozasertib] (partner 0.1 µM)
In short: as §1

Ricolinostat + AZD7762 = compound: O=C(CCCCCCNC(=O)c1cnc(N(c2ccccc2)c2ccccc2)nc1)NO [Ricolinostat] + NC(=O)Nc1cc(-c2cccc(F)c2)sc1C(=O)N[C@H]1CCCNC1 [AZD7762] (partner 0.2 µM)
In short: as §1

Cell Line	relative viability ([1]; first compound 0.08 µM)	relative viability ([1]; first compound 0.253 µM)	relative viability ([1]; first compound 0.8 µM)	relative viability ([1]; first compound 2.53 µM)	relative viability ([1]; first compound 8 µM)	relative viability (TGX 221 + Luminespib; first compound 0.08 µM)	relative viability (TGX 221 + Luminespib; first compound 0.253 µM)	relative viability (TGX 221 + Luminespib; first compound 0.8 µM)	relative viability (TGX 221 + Luminespib; first compound 2.53 µM)	relative viability (TGX 221 + Luminespib; first compound 8 µM)	relative viability (TGX 221 + Tozasertib; first compound 0.08 µM)	relative viability (TGX 221 + Tozasertib; first compound 0.253 µM)	relative viability (TGX 221 + Tozasertib; first compound 0.8 µM)	relative viability (TGX 221 + Tozasertib; first compound 2.53 µM)	relative viability (TGX 221 + Tozasertib; first compound 8 µM)	relative viability (Ricolinostat + AZD7762; first compound 0.08 µM)	relative viability (Ricolinostat + AZD7762; first compound 0.253 µM)	relative viability (Ricolinostat + AZD7762; first compound 0.8 µM)	relative viability (Ricolinostat + AZD7762; first compound 2.53 µM)
A-427	0.188	0.209	0.248	0.224	0.215	0.892	0.82	0.863	0.843	0.861	0.194	0.213	0.211	0.197	0.208	0.606	0.708	0.518	0.507
NCI-H1975	0.54	0.742	0.826	1.02	0.651	0.151	0.2	0.138	0.2	0.145	0.759	0.685	0.761	0.569	0.382	0.66	0.768	0.592	0.705
HCC-827	0.477	0.455	0.402	0.507	0.399	0.475	0.444	0.872	0.426	0.451	0.414	0.436	0.424	0.401	0.349	0.171	0.223	0.167	0.219
UMC-11	0.203	0.227	0.218	0.321	0.219	1.03	0.957	1.03	1.04	1.09	0.183	0.195	0.204	0.203	0.194	–	–	–	–
NCI-H3122	0.355	0.451	0.451	0.507	0.419	0.1	0.0831	0.0649	0.0793	0.116	0.368	0.402	0.372	0.34	0.379	0.838	1.03	1.01	1.12
LXF-289	0.179	0.173	0.201	0.179	0.191	0.667	0.686	0.77	0.47	0.513	0.215	0.235	0.201	0.202	0.114	1.07	1.07	1.11	1.06
NCI-H647	0.2	0.608	0.366	0.314	0.246	0.186	0.164	0.263	0.17	0.118	0.284	0.219	0.312	0.285	0.122	0.35	0.359	0.322	0.241
COR-L23	0.195	0.213	0.199	0.174	0.153	0.666	0.684	0.638	0.797	0.683	0.168	0.222	0.187	0.164	0.179	–	–	–	–
BEN	0.477	0.507	0.747	0.75	0.541	0.26	0.234	0.4	0.378	0.332	0.51	0.505	0.489	0.473	0.496	0.534	0.754	0.559	0.576
LC-2-ad	0.502	0.539	0.487	0.429	0.425	0.957	0.941	1.18	1.01	0.907	0.451	0.479	0.454	0.402	0.396	0.842	0.883	0.82	0.745
NCI-H650	0.62	0.821	0.637	0.837	0.683	0.759	0.774	0.783	0.721	0.753	0.665	0.639	0.665	0.712	0.596	0.706	0.993	0.849	0.579
NCI-H1563	–	–	–	–	–	0.499	0.525	0.538	0.515	0.523	–	–	–	–	–	–	–	–	–
NCI-H1793	0.374	0.331	0.354	0.337	0.34	0.198	0.265	0.174	0.127	0.155	0.311	0.239	0.244	0.16	0.166	0.387	0.414	0.314	0.206
HCC-78	0.465	0.41	0.611	0.503	0.375	–	–	–	–	–	0.344	0.432	0.371	0.268	0.347	–	0.718	0.453	0.2
LCLC-97TM1	0.22	0.187	0.164	0.222	0.187	0.732	0.63	0.821	0.602	0.834	0.214	0.179	0.191	0.239	0.143	–	0.378	0.265	0.34
